According to patent US20240101531A1, “PYRIDINAMINE DERIVATIVES AND THEIR USE AS POTASSIUM CHANNEL MODULATORS” (Xenon Pharmaceuticals Inc., priority 2022, published 2024):
Counter-ions that a name gives are not always drawn.

Biological target: human KV7.2/KV7.3 (Homo sapiens (Human), UniProt O43525+O43526)
Test: Potassium flux assay (IPG-2 AM dye)
Assay type: cell-based
Details: TREX HEK 293 or HEK 293 cells expressing human KV7.2/KV7.3; arithmetic mean values
Procedure, shortened: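 EC50 from 16 concentrations (2-fold dilutions, top 30 μM), scaled between DMSO baseline and a known KV7.x modulator maximum. Signal is IPG-2 AM fluorescence (ex 530/em 558 nm) after 10 mM KCl challenge buffer addition, following 20 min room-temperature compound exposure of HEK 293 or TREX HEK 293 cells stably expressing human KV7.2/KV7.3.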

Row | SMILES | EC50 [nM]
1 | CS(=O)(=Nc1ccc2c(Nc3ccc(Cl)nc3)nccc2c1)C1CCOCC1 (stereo not shown) [Example 270, ((1-((6-chloropyridin-3-yl)amino)isoquinolin-6-yl)imino)(methyl)(tetrahydro-2H-pyran-4-yl)-λ^6-sulfanone] | 1000 to 10000
2 | COCCS(=O)(=Nc1ccc2c(Nc3ccc(Cl)nc3)nccc2c1)C1CC1 (stereo not shown) [Example 271, ((1-((6-chloropyridin-3-yl)amino)isoquinolin-6-yl)imino)(cyclopropyl)(2-methoxyethyl)-λ^6-sulfanone] | 1000 to 10000
3 | CS(=O)(CC1COC1)=Nc1ccc2c(Nc3ccc(Cl)nc3)nccc2c1 (stereo not shown) [Example 272, ((1-((6-chloropyridin-3-yl)amino)isoquinolin-6-yl)imino)(methyl)(oxetan-3-ylmethyl)-λ^6-sulfanone] | 1000 to 10000
4 | CS(=O)(=Nc1ccc2c(Nc3ccc(Cl)nc3)nccc2c1)C1COC1 (stereo not shown) [Example 275, ((1-((6-chloropyridin-3-yl)amino)isoquinolin-6-yl)imino)(methyl)(oxetan-3-yl)-λ^6-sulfanone] | 1000 to 10000
5 | Cc1ncc(Nc2nccc3cc(N=S(C)(=O)C4CC4)ccc23)cn1 (stereo not shown) [Example 278, cyclopropyl(methyl)((1-((2-methylpyrimidin-5-yl)amino)isoquinolin-6-yl)imino)-λ^6-sulfanone] | 1000 to 10000
6 | FC(F)n1cc(COc2ccc3c(Nc4ccc(Cl)nc4)nccc3c2)cn1 [Example 279, N-(6-chloropyridin-3-yl)-6-((1-(difluoromethyl)-1H-pyrazol-4-yl)methoxy)isoquinolin-1-amine] | < 1000
7 | Clc1ccc(Nc2nccc3cc(OC[C@H]4CCCN4Cc4ccccc4)ccc23)cn1 [Example 280, (R)-6-((1-benzylpyrrolidin-2-yl)methoxy)-N-(6-chloropyridin-3-yl)isoquinolin-1-amine] | 1000 to 10000
8 | Clc1ccc(Nc2nccc3cc(OCc4cnn5c4CCC5)ccc23)cn1 [Example 281, N-(6-chloropyridin-3-yl)-6-((5,6-dihydro-4H-pyrrolo[1,2-b]pyrazol-3-yl)methoxy)isoquinolin-1-amine] | 10000 to 30000
9 | Clc1ccc(Nc2nccc3cc(OC4CCN(Cc5ccccc5)C4)ccc23)cn1 (stereo not shown) [Example 282, 6-((1-benzylpyrrolidin-3-yl)oxy)-N-(6-chloropyridin-3-yl)isoquinolin-1-amine] | 1000 to 10000
10 | Clc1ccc(Nc2nccc3cc(OC[C@@H]4CCN(Cc5ccccc5)C4)ccc23)cn1 [Example 283, (R)-6-((1-benzylpyrrolidin-3-yl)methoxy)-N-(6-chloropyridin-3-yl)isoquinolin-1-amine] | 1000 to 10000
11 | Clc1ccc(Nc2nccc3cc(OC[C@H]4CCN(Cc5ccccc5)C4)ccc23)cn1 [Example 284, (S)-6-((1-benzylpyrrolidin-3-yl)methoxy)-N-(6-chloropyridin-3-yl)isoquinolin-1-amine] | 1000 to 10000
12 | Clc1ccc(Nc2nccc3cc(OCc4cnn5c4CCCC5)ccc23)cn1 [Example 285] | 1000 to 10000
13 | CS(=O)(=O)C1(COc2ccc3c(Nc4ccc(Cl)nc4)nccc3c2)CC1 [Example 286, N-(6-chloropyridin-3-yl)-6-((1-(methylsulfonyl)cyclopropyl)methoxy)isoquinolin-1-amine] | 1000 to 10000
14 | CS(=O)(=O)C1(COc2ccc3c(Nc4ccc(Cl)nc4)nccc3c2)CCC1 [Example 287, N-(6-chloropyridin-3-yl)-6-((1-(methylsulfonyl)cyclobutyl)methoxy)isoquinolin-1-amine] | 1000 to 10000
15 | COC1(COc2ccc3c(Nc4ccc(Cl)nc4)nccc3c2)CCC1 [Example 288, N-(6-chloropyridin-3-yl)-6-((1-methoxycyclobutyl)methoxy)isoquinolin-1-amine] | < 1000
16 | Clc1ccc(Nc2nccc3cc(OCc4cnn(C5CC5)c4)ccc23)cn1 [Example 289, N-(6-chloropyridin-3-yl)-6-((1-cyclopropyl-1H-pyrazol-4-yl)methoxy)isoquinolin-1-amine] | 1000 to 10000
17 | Clc1ccc(Nc2nccc3cc(OC4CCC45COC5)ccc23)cn1 (stereo not shown) [Example 290, 6-((2-oxaspiro[3.3]heptan-5-yl)oxy)-N-(6-chloropyridin-3-yl)isoquinolin-1-amine] | < 1000
18 | Cn1ncc(COc2ccc3c(Nc4ccc(Cl)nc4)nccc3c2)c1Cl [Example 291, 6-((5-chloro-1-methyl-1H-pyrazol-4-yl)methoxy)-N-(6-chloropyridin-3-yl)isoquinolin-1-amine] | 1000 to 10000
19 | Cn1cc(COc2ccc3c(Nc4ccc(Cl)nc4)nccc3c2)c(Cl)n1 [Example 292, 6-((3-chloro-1-methyl-1H-pyrazol-4-yl)methoxy)-N-(6-chloropyridin-3-yl)isoquinolin-1-amine] | < 1000
20 | CC1(COc2ccc3c(Nc4ccc(Cl)nc4)nccc3c2)CS(=O)(=O)C1 [Example 293, 3-(((1-((6-chloropyridin-3-yl)amino)isoquinolin-6-yl)oxy)methyl)-3-methylthietane 1,1-dioxide] | < 1000

Row | SMILES | EC50 [nM]
21 | NS(=O)(=O)C1(COc2ccc3c(Nc4ccc(Cl)nc4)nccc3c2)CCC1 [Example 294, 1-(((1-((6-chloropyridin-3-yl)amino)isoquinolin-6-yl)oxy)methyl)cyclobutane-1-sulfonamide] | < 1000
22 | Clc1ccc(Nc2nccc3cc(OCc4cnn(Cc5ccccc5)c4)ccc23)cn1 [Example 295, 6-((1-benzyl-1H-pyrazol-4-yl)methoxy)-N-(6-chloropyridin-3-yl)isoquinolin-1-amine] | 1000 to 10000
23 | CC(Cc1cnn(C)c1)Oc1ccc2c(Nc3ccc(Cl)nc3)nccc2c1 (stereo not shown) [Example 296, N-(6-chloropyridin-3-yl)-6-((1-(1-methyl-1H-pyrazol-4-yl)propan-2-yl)oxy)isoquinolin-1-amine] | 1000 to 10000
24 | Clc1ccc(Nc2nccc3cc(O[C@@H]4CCOC4)ccc23)cn1 [Example 297, (R)-N-(6-chloropyridin-3-yl)-6-((tetrahydrofuran-3-yl)oxy)isoquinolin-1-amine trifluoroacetate] | < 1000
25 | Clc1ccc(Nc2nccc3cc(O[C@H]4CCOC4)ccc23)cn1 [Example 298, (S)-N-(6-chloropyridin-3-yl)-6-((tetrahydrofuran-3-yl)oxy)isoquinolin-1-amine trifluoroacetate] | 1000 to 10000
26 | CC1(C)OCC(COc2ccc3c(Nc4ccc(Cl)nc4)nccc3c2)O1 (stereo not shown) [Example 299, N-(6-chloropyridin-3-yl)-6-((2,2-dimethyl-1,3-dioxolan-4-yl)methoxy)isoquinolin-1-amine] | < 1000
27 | O=S1(=O)CC(COc2ccc3c(Nc4ccc(Cl)nc4)nccc3c2)C1 [Example 300, 3-(((1-((6-chloropyridin-3-yl)amino)isoquinolin-6-yl)oxy)methyl)thietane 1,1-dioxide] | < 1000
28 | Clc1ccc(Nc2nccc3cc(OCc4cnsc4)ccc23)cn1 [Example 301, N-(6-chloropyridin-3-yl)-6-(isothiazol-4-ylmethoxy)isoquinolin-1-amine] | < 1000
29 | C[C@]1(COc2ccc3c(Nc4ccc(Cl)nc4)nccc3c2)CCCO1 [Example 302, (R)—N-(6-chloropyridin-3-yl)-6-((2-methyltetrahydrofuran-2-yl)methoxy)isoquinolin-1-amine] | 1000 to 10000
30 | C[C@@]1(COc2ccc3c(Nc4ccc(Cl)nc4)nccc3c2)CCCO1 [Example 303, (S)—N-(6-chloropyridin-3-yl)-6-((2-methyltetrahydrofuran-2-yl)methoxy)isoquinolin-1-amine] | 1000 to 10000
31 | Clc1ccc(Nc2nccc3cc(COc4cn[nH]c4)ccc23)cn1 [Example 304, 6-(((1H-pyrazol-4-yl)oxy)methyl)-N-(6-chloropyridin-3-yl)isoquinolin-1-amine] | 1000 to 10000
32 | COCC1(COc2ccc3c(Nc4ccc(Cl)nc4)nccc3c2)COC1 [Example 306, N-(6-chloropyridin-3-yl)-6-((3-(methoxymethyl)oxetan-3-yl)methoxy)isoquinolin-1-amine] | < 1000
33 | Cn1cnc(COc2ccc3c(Nc4ccc(Cl)nc4)nccc3c2)n1 [Example 307, N-(6-chloropyridin-3-yl)-6-((1-methyl-1H-1,2,4-triazol-3-yl)methoxy)isoquinolin-1-amine] | 1000 to 10000
34 | Cc1ncc(Nc2nccc3cc(OCc4cncnc4)ccc23)cn1 [Example 308, N-(2-methylpyrimidin-5-yl)-6-(pyrimidin-5-ylmethoxy)isoquinolin-1-amine] | 1000 to 10000
35 | CC(=O)N1CC(COc2ccc3c(Nc4ccc(Cl)nc4)nccc3c2)C1 [Example 309, 1-(3-(((1-((6-chloropyridin-3-yl)amino)isoquinolin-6-yl)oxy)methyl)azetidin-1-yl)ethan-1-one] | 1000 to 10000
36 | FC(F)(F)CN1CC(COc2ccc3c(Nc4ccc(Cl)nc4)nccc3c2)C1 [Example 310, N-(6-chloropyridin-3-yl)-6-((1-(2,2,2-trifluoroethyl)azetidin-3-yl)methoxy)isoquinolin-1-amine] | 1000 to 10000
37 | Cn1cc(Oc2ccc3c(Nc4ccc(Cl)nc4)nccc3c2)cn1 [Example 311, N-(6-chloropyridin-3-yl)-6-((1-methyl-1H-pyrazol-4-yl)oxy)isoquinolin-1-amine] | 1000 to 10000
38 | CC(=O)N1CCC(Oc2ccc3c(Nc4ccc(Cl)nc4)nccc3c2)CC1 [Example 312, 1-(4-((1-((6-chloropyridin-3-yl)amino)isoquinolin-6-yl)oxy)piperidin-1-yl)ethan-1-one] | 1000 to 10000
39 | Clc1ccc(Nc2nccc3cc(OC4CCN(C5COC5)CC4)ccc23)cn1 [Example 313, N-(6-chloropyridin-3-yl)-6-((1-(oxetan-3-yl)piperidin-4-yl)oxy)isoquinolin-1-amine] | 1000 to 10000
40 | Clc1ccc(Nc2nccc3cc(OC4CCN(Cc5ncccn5)CC4)ccc23)cn1 [Example 314, N-(6-chloropyridin-3-yl)-6-((1-(pyrimidin-2-ylmethyl)piperidin-4-yl)oxy)isoquinolin-1-amine] | 1000 to 10000
